Values of other authors as cited in patent publication US20040126318A1, “Methods, formulations and kits for monitoring and diagnosing gastric emptying and gastroparesis, and formulations for determining gastrointestinal motility” (priority 2002, published 2004).

| SMILES | patients with serious side effects (drowsiness, nightmares, depression, Parkinsonism) (patients treated with this drug) | cardiac side effects (reason for removal from the market by the FDA) |
| --- | --- | --- |
| CCN(CC)CCNC(=O)c1cc(Cl)c(N)cc1OC [Metochlopramide] | up to 50% |  |
| COc1cc(N)c(Cl)cc1C(=O)NC1CCN(CCCOc2ccc(F)cc2)CC1OC (centres unmarked) [cisapride] |  | produced severe and sometimes fatal arrhythmias |
